This assay concerns the target human Nav1.8 (Homo sapiens (Human), UniProt Q9Y5Y9). As to the kind of experiment: E-VIPR optical membrane potential assay with electrical stimulation. The assay is classed as cell-based. The note with it: HEK cells expressing human Nav1.8. From the text: Assays for Detecting and Measuring NaV Inhibition Properties of Compounds E-VIPR Optical Membrane Potential Assay Method with Electrical Stimulation
Sodium channels are voltage-dependent proteins that can be activated by inducing membrane voltage changes by applying electric fields. The electrical stimulation instrument and methods of use are described in Ion Channel Assay Methods PCT/US01/21652, herein incorporated by reference and are referred to as E-VIPR. The instrument comprises a microtiter plate handler, an optical system for exciting the coumarin dye while simultaneously recording the coumarin and oxonol emissions, a waveform generator, a current- or voltage-controlled amplifier, and a device for inserting electrodes in well. Under integrated computer control, this instrument passes user-programmed electrical stimulus protocols to cells within the wells of the microtiter plate.
24 hours before the assay on E-VIPR, HEK cells expressing human Nav1.8 were seeded in 384-well poly-lysine coated plates at 15,000-20,000 cells per well. HEK cells were grown in media (exact composition is specific to each cell type and NaV subtype) supplemented with 10% FBS (Fetal Bovine Serum, qualified; GibcoBRL #16140-071) and 1% Pen-Strep (Penicillin-Streptomycin; GibcoBRL #15140-122). Cells were grown in vented cap flasks, in 90% humidity and 5% CO2.
1) Pre-spotted compounds (in neat DMSO) into compound plates. Vehicle control (neat DMSO), the positive control (20 mM DMSO stock tetracaine, 125 μM final in assay) and test compounds were added to each well at 160× desired final concentration in neat DMSO. Final compound plate volume was 80 μL (80-fold intermediate dilution from 1 μL DMSO spot; 160-fold final dilution after transfer to cell plate). Final DMSO concentration for all wells in assay was 0.625%.
2) Prepared Hexyl Dye Solution.
3) Prepared cell plates. On the day of the assay, medium was aspirated and cells were washed three times with 100 μL of Bath1 Solution, maintaining 25 μL residual volume in each well.
4) Dispensed 25 μL per well of Hexyl Dye Solution into cell plates. Incubated for 20-35 minutes at room temp or ambient conditions.
5) Dispensed 80 μL per well of Bath1 into compound plates. Acid Yellow-17 (1 mM) was added and Potassium Chloride was altered from 4.5 to 20 mM depending on the NaV subtype and assay sensitivity.
6) Washed cell plates three times with 100 μL per well of Bath1, leaving 25 μL of residual volume. Then transferred 25 uL per well from Compound Plates to Cell Plates. Incubated for 20-35 minutes at room temp/ambient condition.
7) Read Plate on E-VIPR. Used the current-controlled amplifier to deliver stimulation wave pulses for 10 seconds and a scan rate of 200 Hz. A pre-stimulus recording was performed for 0.5 seconds to obtain the un-stimulated intensities baseline. The stimulatory waveform was followed by 0.5 seconds of post-stimulation recording to examine the relaxation to the resting state.
Data was analyzed and reported as normalized ratios of emission intensities measured in the 460 nm and 580 nm channels. The response as a function of time was reported as the ratios obtained using the following formula: […]
The data was further reduced by calculating the initial (Ri) and final (Rf) ratios. These were the average ratio values during part or all of the pre-stimulation period, and during sample points during the stimulation period. The response to the stimulus R=Rf/Ri was then calculated and reported as a function of time.
Control responses were obtained by performing assays in the presence of a compound with the desired properties (positive control), such as tetracaine, and in the absence of pharmacological agents (negative control). Responses to the negative (N) and positive (P) controls were calculated as above. The compound antagonist activity A is defined as:
[formula] where R is the ratio response of the test compound

The values that follow come from patent publication US9139529B2, “Substituted quinoxalines as sodium channel modulators” (VERTEX PHARMACEUTICALS INCORPORATED, priority 2013, dated 2015).

Sequence of human Nav1.8 (Q9Y5Y9 whole entry): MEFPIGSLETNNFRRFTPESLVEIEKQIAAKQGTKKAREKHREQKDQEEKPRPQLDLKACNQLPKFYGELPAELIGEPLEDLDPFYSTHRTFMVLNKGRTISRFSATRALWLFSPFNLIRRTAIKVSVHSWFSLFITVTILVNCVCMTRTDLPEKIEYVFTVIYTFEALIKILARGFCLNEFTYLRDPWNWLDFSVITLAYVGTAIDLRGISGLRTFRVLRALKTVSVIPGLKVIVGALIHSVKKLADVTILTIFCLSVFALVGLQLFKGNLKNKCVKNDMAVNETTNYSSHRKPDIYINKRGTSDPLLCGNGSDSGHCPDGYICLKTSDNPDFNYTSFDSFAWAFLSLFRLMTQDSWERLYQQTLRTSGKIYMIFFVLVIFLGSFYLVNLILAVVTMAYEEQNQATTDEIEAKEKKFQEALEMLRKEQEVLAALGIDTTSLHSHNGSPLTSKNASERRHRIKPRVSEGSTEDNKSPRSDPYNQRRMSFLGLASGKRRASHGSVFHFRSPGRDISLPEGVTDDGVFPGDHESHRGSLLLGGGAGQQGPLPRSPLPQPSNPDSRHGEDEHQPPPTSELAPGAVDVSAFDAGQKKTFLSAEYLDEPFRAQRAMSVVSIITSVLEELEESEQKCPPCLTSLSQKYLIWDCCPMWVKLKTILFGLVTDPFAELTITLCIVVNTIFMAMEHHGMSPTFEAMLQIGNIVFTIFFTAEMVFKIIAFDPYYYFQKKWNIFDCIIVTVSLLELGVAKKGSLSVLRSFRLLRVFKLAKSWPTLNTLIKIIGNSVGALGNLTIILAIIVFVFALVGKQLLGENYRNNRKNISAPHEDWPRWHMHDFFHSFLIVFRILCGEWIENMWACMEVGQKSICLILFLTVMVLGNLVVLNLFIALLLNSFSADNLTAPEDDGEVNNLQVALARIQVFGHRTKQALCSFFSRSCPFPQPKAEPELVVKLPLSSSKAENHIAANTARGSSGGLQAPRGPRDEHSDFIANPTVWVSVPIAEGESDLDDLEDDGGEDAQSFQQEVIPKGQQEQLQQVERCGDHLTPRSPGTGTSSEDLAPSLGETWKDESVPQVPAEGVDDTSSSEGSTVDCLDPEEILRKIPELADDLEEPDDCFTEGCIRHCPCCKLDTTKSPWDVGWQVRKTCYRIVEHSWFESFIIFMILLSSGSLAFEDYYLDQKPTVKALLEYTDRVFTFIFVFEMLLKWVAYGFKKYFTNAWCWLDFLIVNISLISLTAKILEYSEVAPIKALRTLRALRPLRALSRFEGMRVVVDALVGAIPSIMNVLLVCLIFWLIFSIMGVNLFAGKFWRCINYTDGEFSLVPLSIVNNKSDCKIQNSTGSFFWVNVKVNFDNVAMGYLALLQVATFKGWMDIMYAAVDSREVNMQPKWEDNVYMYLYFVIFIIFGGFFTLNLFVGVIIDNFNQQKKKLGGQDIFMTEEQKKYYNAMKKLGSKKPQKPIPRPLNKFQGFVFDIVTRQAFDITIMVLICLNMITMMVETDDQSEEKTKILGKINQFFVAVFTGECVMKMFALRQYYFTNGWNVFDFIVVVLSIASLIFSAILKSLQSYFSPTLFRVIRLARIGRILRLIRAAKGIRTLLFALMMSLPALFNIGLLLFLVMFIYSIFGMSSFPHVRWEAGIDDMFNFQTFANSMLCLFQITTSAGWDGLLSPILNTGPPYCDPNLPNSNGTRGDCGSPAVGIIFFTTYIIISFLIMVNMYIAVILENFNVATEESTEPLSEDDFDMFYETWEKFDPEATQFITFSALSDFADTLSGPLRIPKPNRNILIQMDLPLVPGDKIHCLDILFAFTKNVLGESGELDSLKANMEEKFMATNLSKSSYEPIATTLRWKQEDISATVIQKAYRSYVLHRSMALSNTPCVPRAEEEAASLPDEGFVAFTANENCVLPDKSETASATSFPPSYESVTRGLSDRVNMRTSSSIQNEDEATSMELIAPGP

For orientation: IC50 means the point on the concentration scale where inhibition reaches its midpoint. A low value points to greater potency in that assay. Turning to `COc1ccc(Oc2nc3ccccc3cc2C(=O)Nc2cccc(S(N)(=O)=O)c2)cc1F` [Compound 62, 2-(3-fluoro-4-methoxyphenoxy)-N-(3-sulfamoylphenyl)quinoline-3-carboxamide], the IC50 came out at 30 nM.

In turn, `Cc1cc(F)ccc1Oc1nc2ccccc2cc1C(=O)Nc1cccc(S(N)(=O)=O)c1` [Compound 63, 2-(4-fluoro-2-methylphenoxy)-N-(3-sulfamoylphenyl)quinoline-3-carboxamide] showed an IC50 of 8 nM.

The compound `NS(=O)(=O)c1cccc(NC(=O)c2cc3ccccc3nc2Oc2ccccc2)c1` [Compound 64, 2-phenoxy-N-(3-sulfamoylphenyl)quinoline-3-carboxamide] yielded a half-maximal inhibitory concentration (IC50) of 81 nM.

For `NS(=O)(=O)c1cccc(NC(=O)c2cc3ccccc3nc2Oc2ccc(F)cc2F)c1` [Compound 65, 2-(2,4-difluorophenoxy)-N-(3-sulfamoylphenyl)quinoline-3-carboxamide], 11 nM corresponded to half-maximal inhibition (IC50).

As for `NS(=O)(=O)c1cccc(NC(=O)c2cc3ccccc3nc2Oc2ccc(F)cc2Cl)c1` [Compound 66, 2-(2-chloro-4-fluorophenoxy)-N-(3-sulfamoylphenyl)quinoline-3-carboxamide], the IC50 was found to be 2 nM.

For `NS(=O)(=O)c1cccc(NC(=O)c2cc3ccccc3nc2Oc2ccc(OCC(F)(F)F)cc2)c1` [Compound 67, N-(3-sulfamoylphenyl)-2-(4-(2,2,2-trifluoroethoxy)phenoxy)quinoline-3-carboxamide], the IC50 is 61 nM.

Turning to `NS(=O)(=O)c1cccc(NC(=O)c2cc3ccccc3nc2Oc2ccc(OC(F)(F)F)cc2)c1` [Compound 68, N-(3-sulfamoylphenyl)-2-(4-(trifluoromethoxy)phenoxy)quinoline-3-carboxamide], the IC50 came out at 13 nM.

As to `COc1ccc(Oc2nc3ccccc3cc2C(=O)Nc2cccc(S(N)(=O)=O)c2)c(Cl)c1` [Compound 69, 2-(2-chloro-4-methoxyphenoxy)-N-(3-sulfamoylphenyl)quinoline-3-carboxamide], the IC50 amounted to 15 nM.

`COc1ccc(Oc2nc3ccccc3cc2C(=O)Nc2cccc(S(N)(=O)=O)c2)c(F)c1` [Compound 70, 2-(2-fluoro-4-methoxyphenoxy)-N-(3-sulfamoylphenyl)quinoline-3-carboxamide]: the IC50 was 34 nM.

In the case of `Cc1cc(Cl)ccc1Oc1nc2ccccc2cc1C(=O)Nc1cccc(S(N)(=O)=O)c1` [Compound 71, 2-(4-chloro-2-methylphenoxy)-N-(3-sulfamoylphenyl)quinoline-3-carboxamide], the IC50 came to 14 nM.

For `COc1ccc(Oc2nc3ccccc3cc2C(=O)Nc2cccc(S(N)(=O)=O)c2)c(OC)c1` [Compound 72, 2-(2,4-dimethoxyphenoxy)-N-(3-sulfamoylphenyl)quinoline-3-carboxamide], the midpoint of inhibition, the IC50, lay at 26 nM.

Turning to `COc1cc(Cl)ccc1Oc1nc2ccccc2cc1C(=O)Nc1cccc(S(N)(=O)=O)c1` [Compound 73, 2-(4-chloro-2-methoxyphenoxy)-N-(3-sulfamoylphenyl)quinoline-3-carboxamide], the IC50 was 31 nM.
